Measured values reported in PubChem BioAssay (NCI).
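All cell lines were grown in 96-well plates and treated with compound for 48 hours. Definition used: TGI = concentration required for complete inhibition of growth.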

Legend:
Assay in all cases: NCI anticancer screen, dose series, 48 h
DMS 273 small cell lung = tested on: DMS 273 small cell lung
HOP-18 NSCLC = tested on: HOP-18 NSCLC
XF 498 CNS = tested on: XF 498 CNS
M19-MEL melanoma = tested on: M19-MEL melanoma
RXF-631 renal = tested on: RXF-631 renal
SNB-78 CNS = tested on: SNB-78 CNS

Measured: TGI

CC1CCN(c2cc(-c3cc4ccccc4o3)oc(=O)c2C#N)CC1
> 100 µM: DMS 273 small cell lung | HOP-18 NSCLC | XF 498 CNS

COC(=O)c1cc2ccccc2c2nc3ccccc3c(Cl)c12
> 100 µM: DMS 273 small cell lung | M19-MEL melanoma | RXF-631 renal | XF 498 CNS

COc1ccc2nc(-c3ccc(O)cc3)ccc2c1
> 100 µM: HOP-18 NSCLC | M19-MEL melanoma | SNB-78 CNS

CSc1nc(C)cc(=O)n1C1OC(COC(C)=O)C(OC(C)=O)C(OC(C)=O)C1OC(C)=O (stereo not given)
> 100 µM: DMS 273 small cell lung | M19-MEL melanoma | XF 498 CNS

O[C@]12c3ccccc3C1CCCCC2N1CCOCC1 (stereo not given in full)
not listed: RXF-631 renal
> 100 µM: all other assays above

COc1cccc2c1[C@H]1OC(=O)NC1CCCCC2 (stereo not given in full)
> 100 µM: DMS 273 small cell lung | HOP-18 NSCLC | M19-MEL melanoma | SNB-78 CNS

Nc1ncnc2c1ncn2CCOC(c1ccccc1)P(=O)(O)O (stereo not given)
> 100 µM: DMS 273 small cell lung | M19-MEL melanoma | SNB-78 CNS

O=C(NN1C(=O)C(Cl)C1c1c(O)ccc2ccccc12)c1ccccc1O (stereo not given)
not listed: RXF-631 renal
> 100 µM: all other assays above
